Laboratory results taken from PMC8954547, “Nonpeptidic Z360-Analogs Tagged with Trivalent Radiometals as Anti-CCK2R Cancer Theranostic Agents: A Preclinical Study” (Pharmaceutics, 2022).

Experiments:
[1] = test system: HEK293-CCK2i4svR cells; assay: Radioligand uptake and internalization in HEK293-CCK2i4svR cells; assay type: cell-based, human
Description: A day before the experiment, HEK293-CCK2i4svR cells were seeded in six-well plates. The next day, cells were rinsed with ice-cold internalization medium (IM: DMEM Glutamax-I, supplemented by 1% (v/v) FBS) and then the fresh medium was added (1.2 mL) at 37 °C. A further portion of IM (150 µL) was added in the upper well-row, and DG2 solution in IM (150 µL) was added in the lower row (to a final concentration of 1 μM; non-specific series). Each of the test radioligands, [^67Ga]Ga/[^111In]In/[^177Lu]Lu-GAS1/3 and [^67Ga]Ga/[^111In]In-GAS2, was finally added (250 fmol total conjugates in 150 μL 0.5% BSA-PBS) in all the wells and the plates were incubated at for 1 h at 37 °C in an Incubator-Orbital Shaker unit (MPM Instr. SrI, Bernareggio, MI, Italy); [^111In]In-GAS1/2/3 were incubated for 15 min, 30 min, 1 h and 2 h. At the predetermined time points, the plates were placed on ice, the medium was collected, and the plates were rinsed with 0.5% BSA-PBS (1 mL). Cells were subsequently treated with an acid-wash solution (2 × 600 µL; 50 mM glycine buffer pH 2.8, 0.1 M NaCl) and the fractions collected (membrane-bound). After briefly washing with 0.5% BSA-PBS (1 mL), the cells were lysed with 1 N NaOH (2 × 600 µL), and the fractions were collected (internalized). The radioactivity content of collected fractions was counted in the gamma counter, and the percentage of internalized and membrane-bound fractions per time point were calculated with Microsoft Excel. Specific internalized and membrane-bound counts were determined by subtracting the respective non-specific (in the presence of 1 μM DG2) from the respective total counts. Results represent specific internalized/membrane bound ± SD of total added radioactivity per well from three experiments performed in triplicate.

[2] = Radioligand stability in mice (radio-HPLC of blood and urine); assay type: in vivo; conditions: mean ± SD
Description: The formation of radiometabolites which can be detected in the blood was tested in blood samples collected 5 min post-injection (pi) of each of the radioligands [^67Ga]Ga/[^111In]In/[^177Lu]Lu-GAS1/3 and [^67Ga]Ga/[^111In]In-GAS2. For this study, in-house male Swiss albino mice (body weight: 30 ± 5 g, provided by the NCSR “Demokritos” Animal House) were used in groups of three. The animals received, through the tail vein, a 100-μL bolus containing each radioligand tested (2.5–3 nmol of the total conjugate in vehicle: saline/EtOH 9/1 v/v, corresponding to: up to 11 MBq for In-111, up to 13 MBq for Ga-67 and up to 74 MBq for Lu-177). Mice were euthanized, and blood was collected directly from the heart using a prechilled penicillin syringe and transferred in a prechilled EDTA-containing Eppendorf Protein LoBind® tube on ice (40 µL, 50 mM Na2EDTA solution). After centrifugation (10 min, 2000× g/4 °C, in a Hettich, Universal 320R, centrifuge), the blood plasma was collected, mixed with chilled MeCN in a 1/1 v/v ratio and centrifuged again (10 min, 15,000× g/4 °C). Supernatants were collected and concentrated to a small volume (≈50–100 μL) under a gentle N2-flux at 40 °C. They were then diluted with physiological saline (≈400 μL) and filtered through a Millex GV filter (0.22 μm, 13 mm Ø, Millipore, Milford, CT, USA). Aliquots of the filtrate were analyzed by radio-RP-HPLC using a Waters Symmetry Shield RP18 cartridge column (5 μm, 3.9 mm × 20 mm) eluted at a flow rate of 1.0 mL/min with the following gradient: 100% A/0% B to 55% A/45% B in 45 min; A = 0.1% aqueous TFA (v/v) and B = MeCN (system 2). The elution time (tR) of each parent radioligand was determined by coinjection of blood samples with an aliquot of the labeling solution on the HPLC column. Results were calculated as the average percentage of intact radioligand ± SD derived from three independent experiments.
Following the same injection protocol, radioligands were administered in additional groups of mice, but this time animals were euthanized 30 min pi. The urine was immediately collected from the bladder using a prechilled syringe and transferred as before in a prechilled EDTA-containing Eppendorf Protein LoBind® centrifuge tube on ice (40 µL, 50 mM Na2EDTA solution) and 0.1 mL of physiological saline. Urine proteins were precipitated by adding chilled MeCN in a 1/1 v/v ratio followed by a 10 min centrifugation step (15,000× g/4 °C). The supernatant was then collected and treated following the blood sample workup procedure. Aliquots of the Millex-GV filtrate (containing >90% of total urine activity) were analyzed by radio-HPLC, adopting the aforementioned conditions. Results were calculated as the average percentage of intact radioligand ± SD derived from three independent experiments.

[3] = test system: SCID mice bearing twin HEK293-CCK2i4svR and wtHEK293 tumors; assay: Biodistribution in SCID mice bearing twin HEK293-CCK2i4svR and wtHEK293 xenografts; assay type: in vivo
Description: Inocula containing a suspension of freshly harvested HEK293-CCK2i4svR/wtHEK293 cells (150 μL, 1.8 × 10^7/1.4 × 10^7 cells, respectively, in normal saline) were subcutaneously (sc) injected in the right and left flanks of male SCID mice (24.5 ± 2.3 g body weight, six weeks of age on arrival day, NCSR “Demokritos” Animal House Facility). Well-palpable tumors (0.42 ± 0.37/0.25 ± […], respectively) were grown at the inoculation site 3–4 weeks later, and biodistribution was conducted. On the day of biodistribution, animals were divided into groups of four and received the radioligand through the tail vein as a bolus (100 μL, containing each of: i. 78–91 kBq [^67Ga]GAS1/2/3 corresponding to 7–17 pmol GAS1/2/3; ii. 74–92 kBq [^111In]GAS1/2/3 corresponding to 20–25 pmol GAS1/2/3; iii. 730 kBq [^177Lu]Lu-GAS1/3 corresponding to 40 pmol GAS1/3, in-vehicle: saline/EtOH 9/1 v/v). Animals were euthanized at predetermined time intervals depending upon the radionuclide applied (for [^67Ga]Ga-GAS1/2/3: 1, 4 and 24 h pi; for [^111In]In-GAS1/2/3: 4 and 24 h pi–two extra groups of mice receiving gelofusine together with [^111In]In-GAS1/2 at 4 and 24 h pi were included; and for [^177Lu]Lu-GAS1/3: 4, 24, 48, 72 and 96 h pi). Mice were dissected, and blood samples, organs of interest and tumors were rapidly collected, weighted and counted in the gamma counter. Biodistribution data was calculated as the percentage of the administered dose per gram tissue (%IA/g) with the aid of suitable standards of the administered dose and the Microsoft Excel program. Results are presented as mean % IA/g values ± SD, n = 4 per time point, as determined by the PRISM^TM 6.0 GraphPad software (San Diego, CA, USA).

Intact radioligand in blood ([2]; mice blood collected 5 min pi): 96.3 ± 3.7 (3) % | Intact radioligand in urine ([2]; mice urine collected 30 min pi): 81.6 ± 1.5 (3) % | Biodistribution, Blood ([3]; 1 h pi): 0.86 ± 0.08 %IA/g | Biodistribution, CCK2i4svR(+) Tumor ([3]; 1 h pi): 4.06 ± 0.07 %IA/g | Biodistribution, CCK2i4svR(-) Tumor ([3]; 1 h pi): 0.48 ± 0.03 %IA/g | Biodistribution, Femur ([3]; 1 h pi): 0.24 ± 0.03 %IA/g | Biodistribution, Heart ([3]; 1 h pi): 0.27 ± 0.03 %IA/g | Biodistribution, Intestines ([3]; 1 h pi): > 25 %IA/g | Biodistribution, Kidneys ([3]; 1 h pi): 1.48 ± 0.18 %IA/g | Biodistribution, Liver ([3]; 1 h pi): 5.51 ± 2.03 %IA/g | Biodistribution, Lungs ([3]; 1 h pi): 0.80 ± 0.09 %IA/g | Biodistribution, Muscle ([3]; 1 h pi): 0.12 ± 0.02 %IA/g | Biodistribution, Pancreas ([3]; 1 h pi): 0.37 ± 0.05 %IA/g | Biodistribution, Spleen ([3]; 1 h pi): 0.52 ± 0.06 %IA/g | Biodistribution, Stomach ([3]; 1 h pi): 0.32 ± 0.14 %IA/g | Biodistribution, Intestines ([3]; 1 h pi, listed as [67Ga]Ga-GAS2): 25.26 ± 2.90 %IA/g | Biodistribution, Blood ([3]; 4 h pi): 0.19 ± 0.06 %IA/g | Biodistribution, CCK2i4svR(+) Tumor ([3]; 4 h pi): 1.53 ± 0.26 %IA/g | Biodistribution, CCK2i4svR(-) Tumor ([3]; 4 h pi): 0.19 ± 0.08 %IA/g | Biodistribution, Femur ([3]; 4 h pi): 0.13 ± 0.03 %IA/g | Biodistribution, Heart ([3]; 4 h pi): 0.10 ± 0.03 %IA/g | Biodistribution, Intestines ([3]; 4 h pi): > 25 %IA/g | Biodistribution, Kidneys ([3]; 4 h pi): 0.39 ± 0.11 %IA/g | Biodistribution, Liver ([3]; 4 h pi): 2.64 ± 0.85 %IA/g | Biodistribution, Muscle ([3]; 4 h pi): 0.04 ± 0.01 %IA/g | Biodistribution, Pancreas ([3]; 4 h pi): 0.08 ± 0.05 %IA/g | Biodistribution, Spleen ([3]; 4 h pi): 0.55 ± 0.15 %IA/g | Biodistribution, Stomach ([3]; 4 h pi): 0.14 ± 0.06 %IA/g | Biodistribution, Intestines ([3]; 4 h pi, listed as [67Ga]Ga-GAS2): 26.38 ± 11.89 %IA/g | Biodistribution, Blood ([3]; 24 h pi): 0.05 ± 0.00 %IA/g | Biodistribution, CCK2i4svR(+) Tumor ([3]; 24 h pi): 0.24 ± 0.03 %IA/g | Biodistribution, CCK2i4svR(-) Tumor ([3]; 24 h pi): 0.08 ± 0.00 %IA/g | Biodistribution, Femur ([3]; 24 h pi): 0.10 ± 0.03 %IA/g | Biodistribution, Heart ([3]; 24 h pi): 0.04 ± 0.01 %IA/g | Biodistribution, Intestines ([3]; 24 h pi): 0.31 ± 0.32 %IA/g | Biodistribution, Kidneys ([3]; 24 h pi): 0.06 ± 0.01 %IA/g | Biodistribution, Liver ([3]; 24 h pi): 0.78 ± 0.17 %IA/g | Biodistribution, Lungs ([3]; 24 h pi): 0.15 ± 0.02 %IA/g | Biodistribution, Muscle ([3]; 24 h pi): 0.02 ± 0.00 %IA/g | Biodistribution, Pancreas ([3]; 24 h pi): 0.03 ± 0.00 %IA/g | Biodistribution, Spleen ([3]; 24 h pi): 0.35 ± 0.02 %IA/g | Biodistribution, Stomach ([3]; 24 h pi): 0.06 ± 0.02 %IA/g | Background clearance / excretion route ([3]; mouse, in vivo): high hepatobiliary excretion
Structure (SMILES): CC(C)(C)C(=O)CN1C(=O)[C@H](NC(=O)Nc2cccc(C(=O)NCCOCCOCCOCCNC(=O)[C@H](CCC(=O)O)NC(=O)CCC(C(=O)[O-])N3CCN(CC(=O)[O-])CCN(CC(=O)[O-])CC3)c2)CN(C2CCCCC2)c2ccccc21.[67Ga+3] (stereo in doubt) [[^67Ga]Ga-GAS2]
Internalized to membrane-bound ratio [1]: 0.9 | Cell uptake (internalized + membrane-bound) ([1]; 1 h 37 °C, specific, of total added activity): 7.32 ± 0.57%
